The values that follow come from patent publication US6984649B1, “Pyridine derivatives” (Bayer Aktiengesellschaft, priority 2000, dated 2006).

Counter-ions that a name gives are not always drawn.

For this test, the system named is A549 human lung epithelium cell line. The test can be described thus: RANTES production in response to TNF-α from A549 cells. The format is cell-based. Conditions: Homo sapiens, A549, A549 cells, 100 ng/ml TNF-α, read-out: Cellular activity grade (A549) (Cellular IC50). Here is the method:
[The Measurement of RANTES Production in Response to TNF-α from A549 Cells]
(1) Preparation of A549 Cells
• The A549 human lung epithelium cell line (ATCC […]) was maintained in Dulbecco's modified Eagle's medium (D-MEM, Nikken Biomedical Institute) supplemented with 10% FCS (Gibco), 100 U/ml penicillin, 100 μg/ml streptomycin, and 2 mM glutamine (culture medium). Forty thousand (4×10^4) cells (80 μl/well) were seeded in each well of 96 well flat-bottom tissue culture plate (Falcon #3072). The plate was allowed to stand for 2 hrs, thus the cells were adhered to the bottom of each well. To the each well was added 10 μl vehicle (1% DMSO), serial dilutions of test compounds in 1% DMSO, or 5 nM Dexamethasone in 1% DMSO as a reference. The mixture (90 μl/well) was incubated for 1 hr at 37° C. After 1 hr, 1 μg/ml TNF-α (10 μl) in culture medium was added to the mixture to obtain 100 μl of reaction mixture. The reaction mixture was cultured for 24 hrs to stimulate the cells with 100 ng/ml TNF-α. Cells with vehicle without TNF-α stimulation were also prepared. (2) Measurement of RANTES Production • Then the concentration of RANTES released from the cells in the supernatants of each well was determined using a quantitative sandwich enzyme immunoassay technique. First, 2 μg/ml mouse anti-huRANTES mAb (R&D Systems, #mAb678) in PBS buffer (pH 7.4, 100 μl) was put in each well of 96-well NUNC fluoro plate (Nalge Nunc, New York USA) (Final 200 ng/well) and the plate was allowed to stand for overnight at 4° C. to be coated by the antibody. Each well of the plate was then washed with 350 μl wash buffer (0.05% Tween-20, 0.85% NaCl, and 25 mM Tris/HCl pH7.4) for three times. Blocking buffer containing 1% BSA (Sigma 99% pure, 100 g), 5% sucrose (Nacalai tesque, 99% pure, 500 g), and 0.02% azide (Nacalai tesque, 100%, 500 g) were added (200 μl) to each well and then the plate was allowed to stand for 4 hours to stabilize the coated antibody. Next, 50 μl supernatants of cell culture prepared in (1) above were put in each well of the 96-well NUNC fluoro plate with coated antibody. Recombinant Human RANTES (Pepro Tech, Inc. #300-06) was used as the standard for the determination of RANTES production (linear range between 1 and 10 ng/ml). Eu-labelled mouse anti-huRANES mAb (60 ng/ml: R&D Systems, #mAb278) in PBS supplemented by 1% BSA and 0.05% Tween 20 was added (50 μl) to each well. The reaction mixtures were incubated at room temperature for 4 hrs. After washing with wash buffer (0.05% Tween-20, 0.85% NaCl, and 25 mM Tris/HCl pH7.4, 350 μl/well) for 5 times with the use of a Sera Washer (Bio-Tech, #MW-96R), the enhancement solution (DELFIA, #1244-405, 100 μl/well) was added to each well. The plate was incubated for 10 minutes at room temperature with moderate shaking. Fluorescent intensity was measured using a DELFIA fluorimeter (Wallac). Excitation was performed at 340 nm and emission was measured at 615 nm. [The Measurement of TNF-α Production in Response to LPS from Peripheral Blood Mononuclear Cells (PBMC)] (1) Preparation of PBMC • Human PBMC were prepared by first obtaining blood from healthy donors and isolating the cells from the blood. The isolation was done by Ficoll gradient-centrifugation method using Ficoll Pacque (Pharmacia #17-1440-02). Within three hours from donation, the isolated PBMC was used. After three times washing with PBS, PBMC were resuspended with RPMI 1640 (Nikken BioMedical Institute) supplemented with 10% FCS (Gibco), 100 U/ml penicillin, 100 μg/ml streptomycin, and 2 mM glutamine (culture medium). The cells (1×10^5 in 150 μL/well) were seeded in each well of 96 well flat-bottom tissue culture plate (Falcon #3072). To the each well was added 20 μl vehicle (1% DMSO), serial dilutions of test compounds in 1% DMSO, or 250 nM Dexamethasone in 1% DMSO as a reference. The mixture (170 μl/well) was incubated for 1 hr at 37° C. After 1 hr, 20 ng/ml LPS (30 μl) in culture medium was added to the mixture to obtain 200 μl of reaction mixture. […]
As for `CC(C)(C)OC(=O)c1c(C2CCCNC2)cc(-c2ccccc2O)nc1N` (stereo not shown) [Example 9-1, tert-butyl 2-amino-6-(2-hydroxyphenyl)-4-(3-piperidinyl)nicotinate hydrochloride], the IC50 (as a rule, the midpoint of a concentration-inhibition curve) fell in the range of 1 to 10 µM.

With `Nc1nc(-c2ccccc2O)cc(C2CCCNC2)c1C(=O)O` (stereo not shown) [Example 9-2, 2-amino-6-(2-hydroxyphenyl)-4-(3-piperidinyl)nicotinic acid hydrochloride], the IC50 is 1 to 10 µM.

`Nc1nc(-c2c(O)cccc2OCC2CC2)cc(C2CCCNC2)c1C(=O)O` (stereo not shown) [Example 9-3, 2-amino-6-[2-(cyclopropylmethoxy)-6-hydroxyphenyl]-4-(3-piperidinyl)nicotinic acid hydrochloride]: the IC50 is > 10 µM.

Take `Cn1c(=O)[nH]c2nc(-c3ccccc3O)cc(C3CCCNC3)c2c1=O` (stereo not shown) [Example 10-1, 7-(2-hydroxy-phenyl)-3-methyl-5-piperidin-3-yl-1H-pyrido[2,3-d]pyrimidine-2,4-dione hydrochloride]: the IC50 fell in the range of 1 to 10 µM.

Turning to `Nc1nc(-c2ccccc2O)cc(C2CCCNC2)c1CO` (stereo not shown) [Example 11-1, 2-[6-amino-5-(hydroxymethyl)-4-(3-piperidinyl)-2-pyridinyl]phenol hydrochloride], the half-maximal inhibitory concentration (IC50) was < 1 µM.

Take `Nc1nc(-c2c(O)cccc2F)cc(C2CCCNC2)c1CO` (stereo not shown) [Example 11-2, 2-[6-amino-5-(hydroxymethyl)-4-(3-piperidinyl)-2-pyridinyl]-3-fluorophenol hydrochloride]: the concentration for half-maximal inhibition (IC50) was < 1 µM.

On to `Nc1nc(-c2ncccc2O)cc(C2CCCNC2)c1CO` (stereo not shown) [Example 11-3, 6′-amino-5′-(hydroxymethyl)-4′-3-piperidinyl)-2,2′-bipyridin-3-ol hydrochloride], for which the IC50 is < 1 µM.

Turning to `Nc1nc(-c2ccccc2O)cc(C2=CCCNC2)c1CO` [Example 11-4, 2-[6′-amino-5′-(hydroxymethyl)-1,2,5,6-tetrahydro-3,4′-bipyridin-2′-yl]phenol hydrochloride], the IC50 is < 1 µM.

As to `Nc1nc(-c2c(O)cccc2OCC2CC2)cc(C2CCCNC2)c1CO` (stereo not shown) [Example 12-1, 2-[6-amino-5-(hydroxymethyl)-4-(3-piperidinyl)-2-pyridinyl]-3-(cyclopropylmethoxy)phenol hydrochloride], the IC50 was < 1 µM.

Turning to `COCc1c(C2CCCNC2)cc(-c2ccccc2O)nc1N` (stereo not shown) [Example 13-1, 2-[6-amino-5-(methoxymethyl)-4-(3-piperidinyl)-2-pyridinyl]phenol hydrochloride], the IC50 is < 1 µM.

As to `CC(O)c1c(C2CCCNC2)cc(-c2ccccc2O)nc1N` (stereo not shown) [Example 15-1, 2-[6-amino-5-(1-hydroxyethyl)-4-(3-piperidinyl)-2-pyridinyl]phenol hydrochloride], the IC50 is 1 to 10 µM.

With `Nc1nc(-c2ccccc2O)cc(C2CCCNC2)c1C(O)c1ccccc1` (stereo not shown) [Example 15-2, 2-[6-amino-5-[hydroxy(phenyl)methyl]-4-(3-piperidinyl)-2-pyridinyl]phenol hydrochloride], the IC50 was 1 to 10 µM.

Take `CC(=O)c1c(C2CCCNC2)cc(-c2ccccc2O)nc1N` (stereo not shown) [Example 15-3, 1-[2-amino-6-(2-hydroxyphenyl)4-(3-piperidinyl)-3-pyridinyl]ethanone hydrochloride]: the half-maximal inhibitory concentration (IC50) was < 1 µM.

`Oc1ccccc1-c1cc(C2CCCNC2)c2cn[nH]c2n1` (stereo not shown) [Example 16-1, 2-(4-Piperidin-3-yl-1H-pyrazolo[3,4-b]pyridin-6-yl)-phenol hydrochloride]: the IC50 was in the range of 1 to 10 µM.

As for `Oc1cccc(OCC2CC2)c1-c1cc(C2CCCNC2)c2c(n1)NCOC2` (stereo not shown) [Example 17-1, 3-(cyclopropylmethoxy)-2-[5-(3-piperidinyl)-1,4-dihydro-2H-pyrido[2,3-d][1,3]oxazin-7-yl]-phenol hydrochloride], the IC50 was < 1 µM.

For the compound `CC1OC(=O)Nc2nc(-c3ccccc3O)cc(C3CCCNC3)c21` (stereo not shown) [Example 18-3, hydrochloride], the IC50 was 1 to 10 µM.
